# Measurements reported in patent EP2265599B1, “CRYSTAL FORM OF PHENYLAMINOPYRIMIDINE DERIVATIVE” (Natco Pharma Limited, priority 2008, dated 2009).
# Assays:
# [1] = tested on: Baf3E255K; test: In vivo anti-leukemic activity, blast cell count in blood smears, Baf3E255K implanted nude mice; conditions: Imatinib 10mg/kg, AN019 20mg/kg, AN024 20mg/kg, oral gavage or ip from day 15; up to day 42
# Excerpt: (§1) Blood smears were obtained via the tail vein or via the femoral vein every 6th day and blast cells counted and graphically represented.
# (§2) Abdominal swelling and decrease in activity was monitored daily, blood smear taken via the tail vein or the femoral vein every 6th day and H&E stained as per standard protocols. 42 days after implantation, mice were sacrificed and spleens harvested.
# (§3) Nude mice were intraperitoneally implanted with Baf3 mutant cells (wt, T315I, M351T or E255K). […] Blood was drawn from the femoral vein or tail vein every 6th day and blast cell count determined and graphically represented.
# [2] = tested on: ZR-71; test: Matrigel invasion assay (modified Boyden chamber), ZR-71; assay type: cell-based; conditions: cells treated 48 h
# Procedure: (§4) The in vitro invasiveness of 4910, 5310 and U87 glioma cells and MDAMB231 and ZR71 breast cancer cells in the presence of specified concentrations of compounds were assessed using a modified Boyden chamber assay. Cells were treated with these compounds for 48 h. 1x10^6 cells were suspended in 600µl of serum-free medium supplemented with 0.2% BSA and placed in the upper compartment of the transwell chambers (Coming Costar Fischer Scientific Cat #07-200-158, Pittsburgh PA) coated with Matrigel (0.7 mg/ml). The lower compartment of the chamber was filled with 200 µl of serum medium and the cells were allowed to migrate for 24 h. After incubation, the cells were fixed and stained with Hema-3 and quantified as previously described (Mohanam et al. 1993). The migrated cells were imaged microscopically to determine the reduction in invasiveness induced by the compounds of this invention.
# (§5) The in vitro invasiveness of 4910, 5310 and U87 glioma cells and MDAMB231 and ZR71 breast cancer cells in the presence of specified concentrations of compounds were assessed using a modified Boyden chamber assay. Cells were treated with these compounds for 48 h.
# [3] = tested on: 4910; test: Matrigel invasion assay (modified Boyden chamber), 4910; assay type: cell-based, human; conditions: cells treated 48 h
# Procedure: as §4, §5
# [4] = tested on: U87 glioma cells; test: In vitro angiogenic assay (conditioned media on human dermal endothelial cells), U87; assay type: cell-based; conditions: with and without radiation
# Procedure: (§6) The in vitro angiogenesis of 4910, 5310 and U87 glioma cells and MDAMB231 and ZR71 breast cancer cells in the presence of specified concentrations of compounds were determined as follows, cells (2x10^4/well) were seeded in 8-well chamber slides and were treated with various concentrations of test compounds. After a 24 h incubation period, the conditioned media was removed and added to a 4x 10^4 human dermal endothelial cell (monolayer in 8-well chamber slides) and the human dermal endothelial cells were allowed to grow for 72 h. Cells were then fixed in 3.7% formaldehyde and stained with H&E and photographed.
# [5] = tested on: U87; test: Matrigel invasion assay (modified Boyden chamber), U87; assay type: cell-based; conditions: cells treated 48 h
# Procedure: as §4, §5
# [6] = tested on: ZR71; test: Western blot analysis for AKT, ERK and Pi3k, ZR71; assay type: cell-based
# Procedure: (§7) Western blot analysis of 4910, 5310 and U87 glioma cells and MDAMB231 and ZR71 breast cancer cells in the presence of specified concentrations of compounds were assessed as per standard protocols. Cells were treated with AN019, AN024 or Temozolomide at the specified concentrations. 24h after treatment, cells were collected and cell lysates extracted. Equal quantities of proteins were fractionated by SDS-PAGE. The fractionated proteins were blotted on to nylon membranes and immunoprobed for AKT, ERK and Pi3k. Breast cancer cell protein isolates were additionally immunoprobed for EGFR, ErbB1, ErbB2 and ErbB3.
# [7] = tested on: K562 luciferase expressing cells; test: Leukemic survival study, K562 luciferase expressing cells implanted intraperitoneally; assay type: in vivo, nude mice
# [8] = tested on: K5621uc cells; test: Drug temporal penetrance (Tp) after stopping drug treatment; assay type: in vivo, nude mice; conditions: AN019 20mg/kg, AN024 20mg/kg, Imatinib 10mg/kg, daily ip from day 15, stopped on day 35, imaged till day 45
# Procedure: The temporal penetrance was calculated applying the following equation, Tp=. (((P)/(n))a -((P)/(n))ter)/(((P)/(n))a -((P)/(n))b) [formula]
# Where: • P=photon counts at day 'a', day 'ter', or day 'b' where 'a' is the day when drug treatment was stopped and 'ter' is the day when the experiment was terminated and 'b' is the day where P is minimum after day a but before day 'ter'. • n=number of animals alive when P was measured.
# The animals were imaged at 6 day intervals post transplantation. […] Drug treatment was stopped on day 35 and animals were imaged till day 45, and calculated as described in methods.
# [9] = tested on: Baf3M351T; test: In vivo anti-leukemic activity, blast cell count in blood smears, Baf3M351T implanted nude mice; conditions: Imatinib 10mg/kg, AN019 20mg/kg, AN024 20mg/kg, oral gavage or ip from day 15; up to day 42
# Excerpt: as §1, §2, §3
# [10] = tested on: U87 cells; test: Western blot analysis for AKT, ERK and Pi3k, U87; assay type: cell-based; conditions: decrease was enhanced after radiation
# Procedure: as §7
# [11] = tested on: 5310 cells; test: In vitro angiogenic assay (conditioned media on human dermal endothelial cells), 5310; assay type: cell-based; conditions: control conditions and after radiation
# Procedure: as §6
# [12] = tested on: MDA-MB-231 cells; test: In vitro angiogenic assay (conditioned media on human dermal endothelial cells), MDA-MB-231; assay type: cell-based; conditions: control condition and after radiation
# Procedure: as §6
# [13] = tested on: ZR-71 cells; test: In vitro angiogenic assay (conditioned media on human dermal endothelial cells), ZR-71; assay type: cell-based
# Procedure: as §6
# [14] = tested on: Baf3T315I; test: In vivo anti-leukemic activity, blast cell count in blood smears, Baf3T315I implanted nude mice; conditions: Imatinib 10mg/kg, AN019 20mg/kg, AN024 20mg/kg, oral gavage or ip from day 15; up to day 42
# Excerpt: as §1, §2, §3
# [15] = tested on: Glioma xenograft cells 4910; test: In vitro angiogenic assay (conditioned media on human dermal endothelial cells), 4910; assay type: cell-based; conditions: 4910 cells, with and without radiation
# Procedure: as §6
# [16] = tested on: 5310; test: Matrigel invasion assay (modified Boyden chamber), 5310; assay type: cell-based; conditions: cells treated 48 h
# Procedure: as §4, §5
# [17] = tested on: K562; test: ED50 (po) and therapeutic index in leukemic mice (K562)
# [18] = tested on: 4910, 5310 and U87 glioma cells and MDAMB231 and ZR71 breast cancer cells; test: Western blot analysis for pAKT and pERK (cell line not specified); assay type: cell-based; conditions: with and without radiation
# Procedure: as §7
# [19] = tested on: 4910 cells; test: Western blot analysis for AKT, ERK and Pi3k, 4910; assay type: cell-based, human; conditions: decrease enhanced after radiation
# Procedure: as §7
# [20] = tested on: MDA-MB-231; test: Matrigel invasion assay (modified Boyden chamber), MDA-MB-231; assay type: cell-based; conditions: cells treated 48 h
# Procedure: as §4, §5
# [21] = tested on: K562 luc human leukemia cells; test: Drug effectiveness (De) from in vivo luciferase studies; set-up: species or system nude mice
# Excerpt: [formula] Where: • Σalive = total number of mice alive per concentration at the end of experiment times photon count, Eluc = total number of mice alive showing luciferase expression per concentration at end of experiment and c represents control untreated animals times photon count and ∑c-initial represents the initial number of animals in control at start of experiment times photon count.
# [22] = tested on: 4910 human glioma xenograft cells; test: Glioma radiation study, intracranially implanted 4910 cells; assay type: in vivo, Nude mice
# Procedure: Nude mice were intracranially implanted with 4910 human glioma xenograft cells (1x10^6 cells). Ten days after implantation mice were treated with AN019, AN024 or temozolomide with or without radiation (5Gy/week). The experiment was terminated at day 40 post implantation.
smiles,measurement,setting,value
Cc1ccc(NC(=O)c2cccc(S(=O)(=O)C(F)(F)F)c2)cc1Nc1nccc(-c2cccnc2)n1 [AN024],blast cell count in blood smears,[1],significant decrease in blast cell count and was superior to AN019 treatment at day 42
same,+Radiation % Invasion,"[2]; ZR-71, with radiation",45%
same,-Radiation % Invasion,"[2]; ZR-71, without radiation",48%
same,+Radiation % Invasion,"[3]; 4910, with radiation",39%
same,-Radiation % Invasion,"[3]; 4910, without radiation",56%
same,inhibition of angiogenesis,[4],significant retardation in angiogenesis with an increase in inhibition after radiation
same,+Radiation % Invasion,"[5]; U87, with radiation",29%
same,-Radiation % Invasion,"[5]; U87, without radiation",53%
same,PI3k levels,"[6]; ZR71 (cell line by context), with and without radiation",decrease in PI3k levels after radiation
same,AKT levels,"[6]; ZR71, unirradiated and after radiation","did not show any significant change under unirradiated conditions, whereas after radiation AN024 treated cells showed a decrease in AKT expression"
same,curative effect after withdrawal of drug treatment (animals cured at day 58),"[7]; drug treatment stopped at day 42, based on luminescence (Fig. 20)",continued to show curative effect
same,Blast cell count from blood smears after withdrawal of drug treatment,[7]; drug treatment withdrawn on day 42 (Fig. 21),showed effectiveness after withdrawal of drug treatment
same,mortality,"[7]; treatment from day 15 till day 42, then withdrawn, AN024 death determined to be other than leukemia",showed mortality on day 38
same,animals showing no signs of leukemia / complete absence of leukemic symptoms,"[7]; treatment from day 15 till day 42, then withdrawn, AN024 on day 55",8 of the 10 animals
same,Tp (temporal penetrance),[8],2.4
same,blast cell count in blood smears,[9],significant decrease in blast cell count and was superior to AN019 treatment at day 42
same,ERK levels,[10],slight decrease in ERK levels
same,inhibition of angiogenesis,[11],"inhibition of angiogenesis was seen in control conditions, whereas angiogenesis further inhibited after radiation treatment"
same,inhibition of angiogenesis,[12],only a slight inhibition was observed in control and radiation treatments
same,inhibition of angiogenesis,[13],complete inhibition of angiogenesis
same,blast cell count in blood smears,[14],significant decrease in blast cell count and was superior to AN019 treatment at day 42
same,inhibition of angiogenesis,[15],significant inhibition of angiogenesis both with and without radiation
same,+Radiation % Invasion,"[16]; 5310, with radiation",32%
same,-Radiation % Invasion,"[16]; 5310, without radiation",27%
same,Therapeutic index-LD50/ED50,[17],144
same,levels of pERK,[18],reduction on pERK levels but to a lesser extent than AN019
same,AKT levels,[19],decrease in AKT levels
same,+Radiation % Invasion,"[20]; MDA-MB-231, with radiation",47%
same,-Radiation % Invasion,"[20]; MDA-MB-231, without radiation",43%
same,De (drug effectiveness),[21]; 5mg/kg,30.00%
same,De (drug effectiveness),[21]; 10mg/kg,85.00%
same,De (drug effectiveness),[21]; 20mg/kg,87.00%
same,De (drug effectiveness),[21]; 40mg/kg,90.00%
same,animals cured / no observable intracranial tumor,"[22]; with radiation (5Gy/week), terminated at day 40",7 of 10 animals
same,"intracranial tumours (size, appearance)",[22]; without radiation,showed presence of intracranial tumours but the tumours were well defined and not showing diffuse edges
same,animals cured / complete absence of intracranial tumours,"[22]; without radiation, treatment from ten days after implantation, terminated at day 40",3 of 10 animals
